Source: PMC10541198, “Specific quinone reductase 2 inhibitors reduce metabolic burden and reverse Alzheimer’s disease phenotype in mice” (The Journal of Clinical Investigation, 2023)
Where “and” joins values, the source holds several entries; their conditions need not be identical. Equal values may be shown once.

How the values were obtained:
QR2 = assay: Immunoblot of QR2 in HCT116 cells after 4-day treatment; format: cell-based, human; details: 2 μM, 4 days; for QR2 expression, mean ± SEM (vehicle = 1): HCT116, n=6
Procedure: To establish direct target engagement and cell membrane permeability, a cellular thermal shift assay (CETSA) was carried out, using leading QR2is YB’s-537, 800, and 808. Following a 1 hour preincubation with 5 μM of the QR2is or vehicle, thermal aggregation curves (Taggs) of QR2 expressed in HEK293T were measured in increasing temperatures. All QR2is increased QR2 thermal stability compared with vehicle (Supplemental Figure 2A). Based on the Tagg curves we selected 73°C for isothermal dose-response fingerprint (IDTRF) experiments (Supplemental Figure 2B). The ITDRF allowed the relative quantification of the binding of each of the QR2is to QR2, measured as the EC50 (Figure 3A). […] We evaluated the safety of the QR2is using cell toxicity and viability assays. […] Cell viability was assessed by XTT assay in HEK239T cells, using a dose response, with 3- or 24-hour incubations of the leading QR2is. No sign of toxicity was seen (Figure 3C). Next, we wanted to assess if, similar to QR2 KO, QR2is can reduce cellular ROS in HCT116 cells and see whether any observable effect is occluded in QR2Δ cells. […] We then assessed WT HCT116 cells by immunoblot (Supplemental Figure 2, C and D), after being treated with YB-800 (2 μM) for 4 consecutive days.
H2DCFDA ROS assay was carried out according to established protocols, with some adjustment (Supplemental Methods) ([6]). Cell toxicity was measured via ATP depletion (CellTiter Glo, Promega) in THLE-2 cells (ATCC, CRL-2706), following 72 hours of exposure to the test compounds, and cell viability was assessed using XTT assay (Biological Industries) according to manufacturers protocols. […]
(Ser51) eIF2α (1:1000, Cell Signaling, 9721), diluted in blocking buffer. The ne xt day, the m em br anes w e re washed three times in TBST and incubated at room temperature (RT) for 1 h with 1:10,000 secondary antibodies conjugated to horseradish peroxidase, and following a further t hr e e times washes in TBSTwere immunoblotted with Westar Supernova (Cyanagen), imaged using a charge-coupled device camera and analyzed using Quantity One software (Bio-Rad). […]

eIF2α = assay: Immunoblot of total and phosphorylated eIF2α 3 hours after CA1 microinjection; format: in vivo, mouse
Procedure: In order to evaluate the efficacy of some of the leading QR2is in vivo, we carried out double-blind experiments using 2 different modalities (Supplemental Methods), measuring memory that is dependent on different brain areas. First, cortical memory was tested using incidental novel taste learning (see Methods), in which an unfamiliar, but palatable and safe, taste is given for the first time, and the memory for this newly learned taste is then assessed 2 days later. This is done by measuring the volume of the taste consumed upon subsequent exposure to it ([32]) (Figure 4A). […] Next, hippocampal-dependent learning was evaluated using delay fear conditioning (DFC; see Methods) ([33]). Mice were cannulated to the CA1 region of the hippocampus and were microinjected with YB-537 (1 μL of 5 μM, Figure 4, D and H) or vehicle. […] In order to evaluate any possible effect of acute QR2i microinjection on metabolic stress in the mouse brain, ISR activation was measured by quantifying total and phosphorylated eukaryotic initiation factor 2 α (eIF2α) levels (Supplemental Figure 3A) and lipid peroxidation product, 4-hydroxynonenal (4-HNE; Supplemental Figure 3B), by immunoblot 3 hours after the injection. […]

Compound	QR2 expression (replicates) (QR2; HCT116)	QR2 expression, mean ± SEM (vehicle = 1) (QR2)	QR2 expression, mean ± SEM (vehicle = 1) (QR2; listed as NG800)	eIF2α phosphorylation levels (eIF2α; 3 hours after microinjection in the mouse hippocampus)	eIF2α phosphorylation, immunoblot (individual mice) (eIF2α; 3 hours after microinjection, Sup. Fig. 3A)
Cc1ccc(-c2cn3cccc(C)c3n2)cc1S(=O)(=O)N1CCC(C)CC1 [YB-800]	1.514 and 1.125 and 1.62 and 0.8886 and 0.7618 and 1.183	unchanged	1.182 ± 0.137	–	–
Cc1ccc(-c2cn3cccc(C)c3n2)cc1S(=O)(=O)N1CCNCC1 [YB-537]	–	–	–	insignificant reduction	1.423 and 1.158 and 1.034 and 0.527 and 1.086 and 1.215 and 0.836
